The data set can be described thus: Distribution and quantification of propranolol in whole-body mouse sections by MALDI mass spectrometry imaging. In kind it is in vivo. The following applies: 7.5 mg/kg intravenous, 20 minutes post-injection, sagittal whole-body section, TEC-normalized.

Method: Male Swiss mice weighing 25-40 g (Charles River, France) were used.
The animals were sacrificed by CO2 asphyxiation at 20 minutes post-injection.
The samples (control and dosed tissue) were sectioned into 20 μm-thick layers using a CM1510S cryostat (Leica Microsystems, Nanterre, France) cooled at −26° C. The sections were then deposited on conductive ITO (indium tin oxide) slides (Bruker Daltonics, Bremen, Germany).
This matrix was prepared at a concentration of 40 mg/ml in methanol/0.1% TFA (1:1, v/v). The matrix solution was deposited using the SunCollect spraying system (SunChrome, Germany).
This range of dilutions extends from 10 pmol/μl to 0.02 pmol/μl and includes seven points.
The images were obtained using an AutoFlex Speed MALDI-TOF mass spectrometer (Bruker Daltonics, Bremen, Germany) equipped with a Smartbeam laser. The data was generated in positive reflectron mode. A total of 700 spectra were obtained for each spot with a 1000 Hz laser frequency and a 300×300 μm′ image spatial resolution on a mass range of 100 Da to 1000 Da. The FlexImaging version 2.1 software was used to reconstruct the images.

For the molecule `CC(C)NCC(O)COc1cccc2ccccc12` (stereo not shown) [propranolol, Propranolol], the “total quantity of the target analyte in the brain” value is “about 5 ng”.

The values are drawn from patent publication US9182409B2, “Mass spectrometry imaging method for detecting and quantifying a target molecule in a tissue sample” (priority 2011, dated 2015).
